For experiment [1], the system named is E. coli WT GFP strain growth, fluorescence, 24 h. Nature of the experiment: E. coli growth inhibition, wild-type GFP versus h24 humanized RFP strain, dose response, h24 mutant RFP vs wild-type GFP, cherry-pick (AID 977628).
The subject of experiment [2] is E. coli mixed WT/h24 culture total growth, OD600, 24 h. The experiment is described as above.

Among the data in PubChem BioAssay AID977628 (Broad Institute, 2014) are AC50 values, retold here.

Results filed as inconclusive are left out. Calls of active or inactive are those of the source.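 Rule for the calls: active = compound lowering the normal-ribosome reporter at least twice as much as the humanized-ribosome reporter, growth loss under a set limit; inconclusive = no clear call, values can overlap the other calls; inactive = the rest.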 Some results are limits rather than exact numbers.

In the case of `CCn1c(CNC(=O)c2ccccc2F)cc2cc(C)ccc21`, the AC50 is > 100 µM (inactive) in experiment [1] and greater than 100 µM in experiment [2].
On the same counts, the results for `CCCCNC(=O)c1onc(CSc2cc(C)cc(C)c2)c1C(=O)O` are > 100 µM (inactive) and 28 µM.
Take `C=CCn1c(-c2cc3cccc(OC)c3o2)n[nH]c1=S`: the results for the AC50 in experiment [1] and in experiment [2] were > 100 µM (inactive) and greater than 100 µM, respectively.
Consider `O=C(Cn1cc(COc2c(F)c(F)cc(F)c2F)nn1)c1ccc(O)cc1`, for which the AC50 in experiment [1] is > 100 µM (inactive); in experiment [2], greater than 100 µM.
For the compound `COc1ccc(OC)c(-c2nnc3n2N=C(c2ccc(OC)c(OC4CCOC4)c2)CS3)c1` (stereo not given), the AC50 was > 100 µM (inactive) in experiment [1] and greater than 100 µM in experiment [2].
For `Cc1ccccc1S(=O)(=O)N1C[C@H]2CON(C)[C@H]2C[C@H]1c1cccc(-c2ccc(C#N)cc2)c1`, the AC50 is > 100 µM (inactive) in experiment [1] and greater than 100 µM in experiment [2].
Regarding `O=C(NCc1ccc(S(=O)(=O)Nc2ccccc2Cl)s1)c1ccccc1`, the AC50 in experiment [1] is > 100 µM (inactive); in experiment [2], greater than 100 µM.
Turning to `COc1cc(C(F)(F)F)c(C(=O)N(C)Cc2ccc(Cl)c(Cl)c2)cn1`, the AC50 in experiment [1] was > 100 µM (inactive); in experiment [2] it was greater than 100 µM.
On the same counts, the results for `O=C(Cc1coc2cc(O)ccc12)N1CCN(S(=O)(=O)c2ccc(Br)cc2)CC1` are > 100 µM (inactive) and 50.5 µM.
On the same counts, the results for `CCc1ccc(NC(=O)COC(=O)CCCC2=NS(=O)(=O)c3ccccc3N2)cc1` are > 100 µM (inactive) and greater than 100 µM.
On the same counts, the results for `COc1ccc(C(=O)Nc2ccc3oc(Cc4ccc(Cl)cc4)nc3c2)cc1OC` are > 100 µM (inactive) and greater than 100 µM.
For the compound `CCCN(CC(=O)Nc1ccccc1C)C(=O)c1cccc(S(=O)(=O)N2CCc3ccccc3C2)c1`, the AC50 in experiment [1] is > 100 µM (inactive); in experiment [2], 51.9 µM.
Regarding `CCN(CC(=O)Nc1cccc(C#N)c1)CC(=O)Nc1cccc(OC)c1`, the figures for the AC50 in experiment [1] and in experiment [2] were > 100 µM (inactive) and greater than 100 µM, respectively.
In the case of `Cc1nc2ccc(Br)cc2c(=O)n1Cc1cccs1`, the AC50 in experiment [1] was > 100 µM (inactive); in experiment [2], 49.7 µM.
On the same counts, the results for `O=C(Nc1ccc2nc3n(c(=O)c2c1)CCCCC3)c1c(F)ccc([N+](=O)[O-])c1F` are > 100 µM (inactive) and greater than 100 µM.
With `Cc1cc(NC(=O)COC(=O)CSCc2ccc(Cl)c(Cl)c2)no1`, the AC50 in experiment [1] is > 100 µM (inactive); in experiment [2] it was greater than 100 µM.
`COc1ccc(OC)c(C(=O)COC(=O)c2ccc([N+](=O)[O-])o2)c1`: the AC50 is > 100 µM (inactive) in experiment [1] and greater than 100 µM in experiment [2].
Take `CCn1c(-c2ccccc2Cl)nn(CC(=O)Nc2ccccc2OC)c1=S`: the AC50 is > 100 µM (inactive) in experiment [1] and greater than 100 µM in experiment [2].
Turning to `O=C(COn1nnc2ccc(C(F)(F)F)cc21)Nc1c(Cl)cccc1Cl`, the AC50 is > 100 µM (inactive) in experiment [1] and greater than 100 µM in experiment [2].
For `CCSc1nc2ccccc2c(=O)n1Cc1ccc(F)cc1`, the AC50 was > 100 µM (inactive) in experiment [1] and 45.7 µM in experiment [2].
On to `COC(=O)[C@@H](Cc1c[nH]c2ccccc12)NCc1cccc(B(O)O)c1`, for which the AC50 was > 100 µM (inactive) in experiment [1] and greater than 100 µM in experiment [2].
On the same counts, the results for `Clc1cccc(OCc2nc(-c3ccncc3)n[nH]2)c1` are > 100 µM (inactive) and greater than 100 µM.
On the same counts, the results for `Cc1ccc(C)c(-c2[nH]ncc2CN2CCCC(CO)(Cc3ccccc3C)C2)c1` (stereo not given) are > 100 µM (inactive) and greater than 100 µM.
`O=C(CSc1ccc(-c2cccnc2)nn1)N1CCCc2ccccc21`: the values for the AC50 in experiment [1] and in experiment [2] were > 100 µM (inactive) and greater than 100 µM, respectively.
On the same counts, the results for `COc1ccc(CC(=O)NCc2csc(-c3cccs3)n2)cc1OC` are > 100 µM (inactive) and greater than 100 µM.
On the same counts, the results for `Cc1ccccc1CSCC(=O)Nc1ccccc1F` are > 100 µM (inactive) and greater than 100 µM.
As for `O=S(=O)(Nc1ccc(-c2cnco2)cc1)c1ccccc1`, the AC50 in experiment [1] is > 100 µM (inactive); in experiment [2], greater than 100 µM.
On the same counts, the results for `CCN(CC)CC(=O)Nc1ccc(-c2ccc(NC(=O)CN(CC)CC)c(OC)c2)cc1OC` are > 100 µM (inactive) and greater than 100 µM.
`Cc1cc(NC(=O)CS(=O)(=O)c2cn(Cc3cccc(Br)c3)c3ccccc23)no1`: the AC50 in experiment [1] is > 100 µM (inactive); in experiment [2], 40 µM.
On the same counts, the results for `Cc1cc(OCC(=O)N(Cc2ccco2)C2CCS(=O)(=O)C2)ccc1Cl` (stereo not given) are > 100 µM (inactive) and greater than 100 µM.
On the same counts, the results for `O=C(Nc1cccc(Cl)c1)N1C[C@@H]2[C@H](c3ccccc31)[C@@H](CO)N2CC1CCCCC1` are > 100 µM (inactive) and 41.9 µM.
For `CCc1cc(C(=O)N2CCCC(C(=O)c3cccc4ccccc34)C2)n(C)n1` (stereo not given), the AC50 in experiment [1] is > 100 µM (inactive); in experiment [2] it was greater than 100 µM.
On the same counts, the results for `COC(=O)C(Cc1csc2ccc(Cl)cc12)NC(=O)c1ccc(Cl)cc1` (stereo not given) are > 100 µM (inactive) and 31 µM.
`COc1ccc(NS(=O)(=O)c2cccc3ccccc23)cc1`: the AC50 in experiment [1] was > 100 µM (inactive); in experiment [2], 40.6 µM.
On the same counts, the results for `CCN(c1ccccc1)S(=O)(=O)c1ccc(OC)c(OC)c1` are > 100 µM (inactive) and greater than 100 µM.
Regarding `COc1cc(OC)cc(C(=O)Nc2ccc(S(=O)(=O)Nc3cnc4ccccc4n3)cc2)c1`, the AC50 in experiment [1] was > 100 µM (inactive); in experiment [2] it was 42.2 µM.
Take `COc1cc2c(cc1NC(=O)C(C)Sc1cccc[n+]1[O-])oc1ccccc12` (stereo not given): the AC50 in experiment [1] is > 100 µM (inactive); in experiment [2] it was greater than 100 µM.
On the same counts, the results for `CC(C)(C)c1cc(-c2n[nH]c(=S)n2-c2ccc(Cl)cc2)n[nH]1` are > 100 µM (inactive) and greater than 100 µM.
On the same counts, the results for `COc1ccc(CNC(=O)c2cc3c(s2)CN(Cc2ccccc2)C3)cc1` are > 100 µM (inactive) and greater than 100 µM.
Consider `Cc1nn(-c2ccccc2)c(C)c1NC(=O)COc1ccc2ccccc2c1`, for which the figures for the AC50 in experiment [1] and in experiment [2] were > 100 µM (inactive) and 42.8 µM, respectively.
Regarding `COc1cccc(OCCNS(=O)(=O)c2ccccc2[N+](=O)[O-])c1`, the AC50 was > 100 µM (inactive) in experiment [1] and greater than 100 µM in experiment [2].
On the same counts, the results for `COc1ccc(-c2nnn(CC(=O)N3CCN(c4ccccc4OC)CC3)n2)cc1OC` are > 100 µM (inactive) and greater than 100 µM.
`CCn1cc(Cl)c(C(=O)Nc2cccc(C(F)(F)F)c2)n1`: the values for the AC50 in experiment [1] and in experiment [2] were > 100 µM (inactive) and greater than 100 µM, respectively.
On the same counts, the results for `CC(=O)c1c(C)nn(CC(O)COc2ccc3c(c2)CCC3)c1C` (stereo not given) are > 100 µM (inactive) and 50.1 µM.
On the same counts, the results for `COc1ccc(C(=O)Nc2ccc(Nc3ccccc3)cc2)cc1[N+](=O)[O-]` are > 100 µM (inactive) and greater than 100 µM.
